According to patent publication US20140206682A1, “COMPOUNDS AND COMPOSITIONS AS PDGFR KINASE INHIBITORS” (NOVARTIS PHARMACEUTICALS UK LIMITED, priority 2011, published 2014):

Each compound was assayed on PDGFR (assay: Rat A10 cell proliferation assay). Conditions: Table 1; Rat A10 cells, recombinant rat PDGF-BB, CellTiter-Glo after 68 hours.
Assay type: cell-based
Outline: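 Rat A10 cells in DMEM with 1% FBS and 10 ng/mL rat PDGF-BB, preincubated 4 h at 37 °C, then exposed to 3-fold serially diluted compound for 68 h. Viability/proliferation read as CellTiter-Glo luminescence.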

For `COC[C@H](NC(=O)c1ccc(F)c(NC(=O)c2cnc3ccccn23)c1)[C@@H](O)c1ccccc1` [F118, N-(2-fluoro-5-{[(1S,2S)-1-hydroxy-3-methoxy-1-phenylpropan-2-yl]carbamoyl}phenyl)imidazo[1,2-a]pyridine-3-carboxamide], which IC50 is on record?
The IC50 was 41 nM.

`O=C(NC(CO)c1ccccc1)c1ccc(F)c(NC(=O)c2cnc3ccccn23)c1` (stereo not shown) [F4, N-{2-fluoro-5-[(2-hydroxy-1-phenylethyl)carbamoyl]phenyl}imidazo[1,2-a]pyridine-3-carboxamide] was tested. Which IC50 did it give?
Its IC50 is 89 nM.

For `COC[C@H](NC(=O)c1ccc(F)c(NC(=O)c2cnc3cc(C)ccn23)c1)[C@@H](O)c1ccccc1` [F126, N-(2-fluoro-5-{[(1S,2S)-1-hydroxy-3-methoxy-1-phenylpropan-2-yl]carbamoyl}phenyl)-7-methylimidazo[1,2-a]pyridine-3-carboxamide], which IC50 is on record?
Its IC50 is 8 nM.

How did the IC50 turn out when `COC[C@H](NC(=O)c1ccc(F)c(NC(=O)c2cnc3cc(-c4ccnn4C)ccn23)c1)[C@@H](O)c1ccccc1` [F129, N-(2-fluoro-5-{[(1S,2S)-1-hydroxy-3-methoxy-1-phenylpropan-2-yl]carbamoyl}phenyl)-7-(1-methyl-1H-pyrazol-5-yl)imidazo[1,2-a]pyridine-3-carboxamide] was run?
Its IC50 is 14 nM.

How did the IC50 turn out when `O=C(N[C@@H]1CCCC[C@H]1CO)c1ccc(F)c(NC(=O)c2cnc3ccccn23)c1` [F24, N-(2-fluoro-5-{[(1R,2R)-2-(hydroxymethyl)cyclohexyl]carbamoyl}phenyl)imidazo[1,2-a]pyridine-3-carboxamide] was run?
The IC50 was 94 nM.

`Cn1nccc1-c1ccn2c(C(=O)Nc3cc(C(=O)N[C@H]4Cc5ccccc5[C@H]4O)ccc3F)cnc2c1` [F16, N-(2-fluoro-5-{[(1R,2S)-1-hydroxy-2,3-dihydro-1H-inden-2-yl]carbamoyl}phenyl)-7-(1-methyl-1H-pyrazol-5-yl)imidazo[1,2-a]pyridine-3-carboxamide] was tested. Which IC50 did it give?
Its IC50 is 57 nM.

For `O=C(NC[C@@H]1CCCC[C@H]1O)c1ccc(F)c(NC(=O)c2cnc3ccccn23)c1` [F116, N-[2-fluoro-5-({[(1S,2R)-2-hydroxycyclohexyl]methyl}carbamoyl)phenyl]imidazo[1,2-a]pyridine-3-carboxamide], which IC50 is on record?
Its IC50 is 64 nM.

With `CCC[C@@H](CO)NC(=O)c1ccc(F)c(NC(=O)c2cnc3ccccn23)c1` [F110, N-(2-fluoro-5-{[(2S)-1-hydroxypentan-2-yl]carbamoyl}phenyl)imidazo[1,2-a]pyridine-3-carboxamide] as the compound, how does the IC50 read?
Its IC50 is 115 nM.

Which IC50 does the source give for `Cc1ccc(C(=O)NC(CO)C(C)C)cc1NC(=O)c1cnc2ccccn12` (stereo not shown) [F3, N-{5-[(1-hydroxy-3-methylbutan-2-yl)carbamoyl]-2-methylphenyl}imidazo[1,2-a]pyridine-3-carboxamide] here?
The IC50 was 175 nM.

With `O=C(NC[C@@H](O)c1ccccc1F)c1ccc(F)c(NC(=O)c2cnc3ccccn23)c1` [F122, N-(2-fluoro-5-{[(2S)-2-(2-fluorophenyl)-2-hydroxyethyl]carbamoyl}phenyl)imidazo[1,2-a]pyridine-3-carboxamide] as the compound, how does the IC50 read?
Its IC50 is 60 nM.

`O=C(N[C@@H]1c2ccccc2C[C@@H]1O)c1ccc(F)c(NC(=O)c2cnc3ccccn23)c1` [F5, N-(2-fluoro-5-{[(1R,2S)-2-hydroxy-2,3-dihydro-1H-inden-1-yl]carbamoyl}phenyl)imidazo[1,2-a]pyridine-3-carboxamide] was tested. Which IC50 did it give?
The IC50 was 35 nM.

Same assay, conditions: Table 2; Rat A10 cells, recombinant rat PDGF-BB, CellTiter-Glo after 68 hours

`O=C(NC1CCCC[C@H]1CO)c1ccc(F)c(NC(=O)c2cnc3ccccn23)c1` (stereo in doubt) [F43, N-(2-fluoro-5-{[(1R,2R)-2-(hydroxymethyl)cyclohexyl]carbamoyl}phenyl)imidazo[1,2-a]pyridine-3-carboxamide] was tested. Which IC50 did it give?
The IC50 was 294 nM.

Which IC50 does the source give for `CC(C)(O)[C@@H]1CCCC[C@@H]1NC(=O)c1ccc(F)c(NC(=O)c2cnc3ccccn23)c1` [F106, N-(2-fluoro-5-{[(1S,2R)-2-(2-hydroxypropan-2-yl)cyclohexyl]carbamoyl}phenyl)imidazo[1,2-a]pyridine-3-carboxamide] here?
The IC50 was 813 nM.

For `O=C(N[C@@H](c1ccccc1)[C@H](O)CO)c1ccc(F)c(NC(=O)c2cnc3ccccn23)c1` [F101, N-(5-{[(1S,2S)-2,3-dihydroxy-1-phenylpropyl]carbamoyl}-2-fluorophenyl)imidazo[1,2-a]pyridine-3-carboxamide], which IC50 is on record?
Its IC50 is 429 nM.

How did the IC50 turn out when `O=C(N[C@H]1c2ccccc2C[C@H]1O)c1cccc(NC(=O)c2cnc3ccccn23)c1` [F68, N-(3-{[(1S,2R)-2-hydroxy-2,3-dihydro-1H-inden-1-yl]carbamoyl}phenyl)imidazo[1,2-a]pyridine-3-carboxamide] was run?
The IC50 was 1520 nM.

`O=C(N[C@H]1CC[C@H](O)CC1)c1ccc(F)c(NC(=O)c2cnc3ccccn23)c1` [F93, N-{2-fluoro-5-[(4-hydroxycyclohexyl)carbamoyl]phenyl}imidazo[1,2-a]pyridine-3-carboxamide] was tested. Which IC50 did it give?
Its IC50 is 1140 nM.

With `[2H]c1c([2H])c([2H])n2c(C(=O)Nc3cc(C(=O)N[C@H]4c5ccccc5C[C@H]4O)ccc3F)cnc2c1[2H]` [F55, N-(2-fluoro-5-{[(1S,2R)-2-hydroxy-2,3-dihydro-1H-inden-1-yl]carbamoyl}phenyl)-5,6,7,8-tetrahydrogenioimidazo[1,2-a]pyridine-3-carboxamide] as the compound, how does the IC50 read?
Its IC50 is 484 nM.

Which IC50 does the source give for `O=C(NCC1(CO)CCCC1)c1ccc(F)c(NC(=O)c2cnc3ccccn23)c1` [F90, N-(2-fluoro-5-({[1-(hydroxymethyl)cyclopentyl]methyl}carbamoyl)phenyl]imidazo[1,2-a]pyridine-3-carboxamide] here?
The IC50 was 1760 nM.

With `O=C(N[C@@H]1CCSC[C@H]1O)c1ccc(F)c(NC(=O)c2cnc3ccccn23)c1` [F105, N-(2-fluoro-5-{[(3S,4R)-3-hydroxythian-4-yl]carbamoyl}phenyl)imidazo[1,2-a]pyridine-3-carboxamide] as the compound, how does the IC50 read?
Its IC50 is 840 nM.

How did the IC50 turn out when `O=C(N[C@@H]1c2ccccc2C[C@@H]1O)c1ccc(F)c(NC(=O)c2cnc3ccc(N4CCOCC4)cn23)c1` (stereo in doubt) [F54, N-(2-fluoro-5-{[(1R,2S)-2-hydroxy-2,3-dihydro-1H-inden-1-yl]carbamoyl}phenyl)-6-(morpholin-4-yl)imidazo[1,2-a]pyridine-3-carboxamide] was run?
Its IC50 is 477 nM.

For `Cc1ccn2c(C(=O)Nc3cc(C(=O)N[C@H]([C@@H](O)c4ccccc4)C(C)(C)O)ccc3F)cnc2c1` [F108, N-(5-{[(1S,2R)-1,3-dihydroxy-3-methyl-1-phenylbutan-2-yl]carbamoyl}-2-fluorophenyl)-7-methylimidazo[1,2-a]pyridine-3-carboxamide], which IC50 is on record?
The IC50 was 255 nM.

`COc1ccc2ncc(C(=O)Nc3cc(C(=O)N[C@H]4c5ccccc5C[C@H]4O)ccc3F)n2c1` [F35, N-(2-fluoro-5-{[(1S,2R)-2-hydroxy-2,3-dihydro-1H-inden-1-yl]carbamoyl}phenyl)-6-methoxyimidazo[1,2-a]pyridine-3-carboxamide] was tested. Which IC50 did it give?
Its IC50 is 228 nM.

For `O=C(N[C@H](CO)[C@H](O)c1ccccc1)c1ccc(F)c(NC(=O)c2cnc3ccccn23)c1` [F107, N-(5-{[(1R,2R)-1,3-dihydroxy-1-phenylpropan-2-yl]carbamoyl}-2-fluorophenyl)imidazo[1,2-a]pyridine-3-carboxamide], which IC50 is on record?
Its IC50 is 265 nM.

How did the IC50 turn out when `O=C(NC(CO)c1ccccc1)c1cccc(NC(=O)c2cnc3ccccn23)c1` (stereo in doubt) [F44, N-(3-{[(1S)-2-hydroxy-1-phenylethyl]carbamoyl}phenyl)imidazo[1,2-a]pyridine-3-carboxamide] was run?
Its IC50 is 311 nM.

With `O=C(N[C@H]1c2ccccc2C[C@H]1O)c1ccc(F)c(NC(=O)c2cnc3cc(F)ccn23)c1` [F60, 7-fluoro-N-(2-fluoro-5-{[(1S,2R)-2-hydroxy-2,3-dihydro-1H-inden-1-yl]carbamoyl}phenyl)imidazo[1,2-a]pyridine-3-carboxamide] as the compound, how does the IC50 read?
The IC50 was 609 nM.

How did the IC50 turn out when `O=C(NC1(CO)CCCC1)c1cccc(NC(=O)c2cnc3ccccn23)c1` [F77, N-(3-{[1-(hydroxymethyl)cyclopentyl]carbamoyl}phenyl)imidazo[1,2-a]pyridine-3-carboxamide] was run?
Its IC50 is 9450 nM.

`O=C(N[C@@H]1CCCC[C@H]1O)c1ccc(F)c(NC(=O)c2cnc3ccccn23)c1` [F56, N-(2-fluoro-5-{[(1R,2R)-2-hydroxycyclohexyl]carbamoyl}phenyl)imidazo[1,2-a]pyridine-3-carboxamide] was tested. Which IC50 did it give?
The IC50 was 521 nM.

How did the IC50 turn out when `O=C(N[C@@H]1Cc2ccccc2[C@@H]1O)c1ccc(F)c(NC(=O)c2cnc3ccccn23)c1` [F38, N-(2-fluoro-5-{[(1S,2R)-1-hydroxy-2,3-dihydro-1H-inden-2-yl]carbamoyl}phenyl)imidazo[1,2-a]pyridine-3-carboxamide] was run?
The IC50 was 248 nM.

`Cc1ccc2ncc(C(=O)Nc3cc(C(=O)N[C@@H]4c5ccccc5C[C@@H]4O)c(F)cc3F)n2c1` [F87, N-(2,4-difluoro-5-{[(1R,2S)-2-hydroxy-2,3-dihydro-1H-inden-1-yl]carbamoyl}phenyl)-6-methylimidazo[1,2-a]pyridine-3-carboxamide] was tested. Which IC50 did it give?
The IC50 was 2860 nM.

How did the IC50 turn out when `O=C(N[C@H]1c2ccccc2C[C@H]1O)c1ccc(F)c(NC(=O)c2cnc3ccc(-n4ccnc4)cn23)c1` [F81, N-(2-fluoro-5-{[(1S,2R)-2-hydroxy-2,3-dihydro-1H-inden-1-yl]carbamoyl}phenyl)-6-(1H-imidazol-1-yl)imidazo[1,2-a]pyridine-3-carboxamide] was run?
The IC50 was greater than 10000 nM.

`O=C(N[C@@H]1CCC[C@H]1O)c1ccc(F)c(NC(=O)c2cnc3ccccn23)c1` [F75, N-(2-fluoro-5-{[(1R,2R)-2-hydroxycyclopentyl]carbamoyl}phenyl)imidazo[1,2-a]pyridine-3-carboxamide] was tested. Which IC50 did it give?
Its IC50 is 3840 nM.

`O=C(N[C@H]1CC[C@H](O)CC1)c1cccc(NC(=O)c2cnc3ccccn23)c1` [F76, N-{3-[(4-hydroxycyclohexyl)carbamoyl]phenyl}imidazo[1,2-a]pyridine-3-carboxamide] was tested. Which IC50 did it give?
Its IC50 is 9420 nM.

Which IC50 does the source give for `CCC[C@@H](CO)NC(=O)c1ccc(F)c(NC(=O)c2cnc3ccccn23)c1` [F49, N-(2-fluoro-5-{[(2S)-1-hydroxypentan-2-yl]carbamoyl}phenyl)imidazo[1,2-a]pyridine-3-carboxamide] here?
Its IC50 is 373 nM.

With `O=C(NC1Cc2ccccc2C1O)c1ccc(F)c(NC(=O)c2cnc3ccccn23)c1` (stereo not shown) [F53, N-{2-fluoro-5-[(1-hydroxy-2,3-dihydro-1H-inden-2-yl)carbamoyl]phenyl}imidazo[1,2-a]pyridine-3-carboxamide] as the compound, how does the IC50 read?
The IC50 was 433 nM.
